Assay results taken from ChEMBL document CHEMBL1201862, “PubChem BioAssay data set” (2004).
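Assay format: 96-well plates, 48-hour exposure. GI50: concentration for 50% inhibition of growth.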 Calls of active or inactive are those of the source. No stated cut-off is given here; in the data, active = GI50 up to about 1.1 µM and inactive = higher.

Tests used:
Experiment in all cases: DTP human tumour cell line panel, 48 h
T47D = test system: T47D
CCRF-CEM = test system: CCRF-CEM
Malme-3M = test system: Malme-3M
RXF 393 = test system: RXF 393
HOP-62 = test system: HOP-62
CAKI-1 = test system: CAKI-1
OVCAR-4 = test system: OVCAR-4
SN12C = test system: SN12C
K562 = test system: K562
PC-3 = test system: PC-3
SK-OV-3 = test system: SK-OV-3
OVCAR-8 = test system: OVCAR-8
HT-29 = test system: HT-29
EKVX = test system: EKVX
Hs-578T = test system: Hs-578T
ACHN = test system: ACHN
HOP-92 = test system: HOP-92
M14 = test system: M14
MDA-MB-435 = test system: MDA-MB-435
NCI-H226 = test system: NCI-H226
A498 = test system: A498
SF-295 = test system: SF-295
OVCAR-5 = test system: OVCAR-5
SF-539 = test system: SF-539
MDA-N = test system: MDA-N
LOX IMVI = test system: LOX IMVI
NCI-H23 = test system: NCI-H23
MCF7 = test system: MCF7
TK-10 = test system: TK-10
DU-145 = test system: DU-145
RPMI-8226 = test system: RPMI-8226
SNB-75 = test system: SNB-75
UO-31 = test system: UO-31
786-0 = test system: 786-0
SK-MEL-28 = test system: SK-MEL-28
IGROV-1 = test system: IGROV-1
MOLT-4 = test system: MOLT-4
MDA-MB-231 = test system: MDA-MB-231
U-251 = test system: U-251
UACC-257 = test system: UACC-257
HCT-15 = test system: HCT-15
SF-268 = test system: SF-268
SW-620 = test system: SW-620
NCI-H460 = test system: NCI-H460
SK-MEL-2 = test system: SK-MEL-2
KM12 = test system: KM12
A549 = test system: A549
OVCAR-3 = test system: OVCAR-3
COLO 205 = test system: COLO 205
SNB-19 = test system: SNB-19
SK-MEL-5 = test system: SK-MEL-5
NCI-H522 = test system: NCI-H522
UACC-62 = test system: UACC-62
NCI/ADR-RES = test system: NCI/ADR-RES
HL-60 = test system: HL-60
HCT-116 = test system: HCT-116
HCC 2998 = test system: HCC 2998

COC(CN(C=O)[C@@H](c1ccc(Cl)cc1)c1cc2ccccc2o1)OC
GI50 (T47D): 11.6 µM (inactive) | GI50 (CCRF-CEM): 21.1 µM (inactive) | GI50 (Malme-3M): 0.397 µM (active) | GI50 (RXF 393): 14.6 µM (inactive) | GI50 (HOP-62): 22 µM (inactive) | GI50 (CAKI-1): 15.8 µM (inactive) | GI50 (OVCAR-4): 19.2 µM (inactive) | GI50 (SN12C): 17.2 µM (inactive) | GI50 (K562): 24.4 µM (inactive) | GI50 (PC-3): 17.3 µM (inactive) | GI50 (SK-OV-3): 0.841 µM (active) | GI50 (OVCAR-8): 16 µM (inactive) | GI50 (HT-29): 17.1 µM (inactive) | GI50 (EKVX): 15.8 µM (inactive) | GI50 (Hs-578T): 14 µM (inactive) | GI50 (ACHN): 20.8 µM (inactive) | GI50 (HOP-92): 16.7 µM (inactive) | GI50 (M14): 17.3 µM (inactive) | GI50 (MDA-MB-435): 18.5 µM (inactive) | GI50 (NCI-H226): 18.1 µM (inactive) | GI50 (A498): 18.9 µM (inactive) | GI50 (SF-295): 16.9 µM (inactive) | GI50 (OVCAR-5): 15.8 µM (inactive) | GI50 (SF-539): 17.9 µM (inactive) | GI50 (MDA-N): 17.1 µM (inactive) | GI50 (LOX IMVI): 16.3 µM (inactive) | GI50 (NCI-H23): 18.5 µM (inactive) | GI50 (MCF7): 15.5 µM (inactive) | GI50 (TK-10): 15.5 µM (inactive) | GI50 (DU-145): 14.8 µM (inactive) | GI50 (RPMI-8226): 16 µM (inactive) | GI50 (SNB-75): 22.9 µM (inactive) | GI50 (UO-31): 16.5 µM (inactive) | GI50 (786-0): 23.6 µM (inactive) | GI50 (SK-MEL-28): 18.5 µM (inactive) | GI50 (IGROV-1): 14.8 µM (inactive) | GI50 (MOLT-4): 17.8 µM (inactive) | GI50 (MDA-MB-231): 18.5 µM (inactive) | GI50 (U-251): 17.3 µM (inactive) | GI50 (UACC-257): 14 µM (inactive) | GI50 (HCT-15): 17 µM | GI50 (SF-268): 15.3 µM (inactive) | GI50 (SW-620): 16.6 µM (inactive) | GI50 (NCI-H460): 15.5 µM (inactive) | GI50 (SK-MEL-2): 16.7 µM (inactive) | GI50 (KM12): 11.1 µM (inactive) | GI50 (A549): 21 µM (inactive) | GI50 (OVCAR-3): 12.7 µM (inactive) | GI50 (COLO 205): 17.6 µM (inactive) | GI50 (SNB-19): 19.4 µM (inactive) | GI50 (SK-MEL-5): 15.5 µM (inactive) | GI50 (NCI-H522): 14.5 µM (inactive) | GI50 (UACC-62): 14.8 µM (inactive) | GI50 (NCI/ADR-RES): 18.3 µM (inactive) | GI50 (HL-60): 20.5 µM (inactive) | GI50 (HCT-116): 15.8 µM (inactive)

CCCCCCCCCCCCC/C=C/[C@@H](O)[C@H](COC1OC(CO)C(OC2OC(CO)C(O)C(OC3(C(=O)O)CC(O)C(NC(C)=O)C(C(O)C(O)CO)O3)C2O)C(O)C1O)N=[N+]=[N-] (stereo partly drawn)
GI50 (T47D): 48.5 µM (inactive) | GI50 (CCRF-CEM): 22.5 µM (inactive) | GI50 (Malme-3M): 21.8 µM (inactive) | GI50 (RXF 393): 20.7 µM (inactive) | GI50 (HOP-62): 20.5 µM (inactive) | GI50 (CAKI-1): > 100 µM (inactive) | GI50 (OVCAR-4): > 100 µM (inactive) | GI50 (SN12C): > 100 µM (inactive) | GI50 (K562): 27.4 µM (inactive) | GI50 (PC-3): 24.2 µM (inactive) | GI50 (SK-OV-3): 31.2 µM (inactive) | GI50 (OVCAR-8): 21.8 µM (inactive) | GI50 (HT-29): 22 µM (inactive) | GI50 (EKVX): > 100 µM (inactive) | GI50 (Hs-578T): 55.7 µM (inactive) | GI50 (ACHN): > 100 µM (inactive) | GI50 (HOP-92): > 100 µM (inactive) | GI50 (M14): 18.7 µM (inactive) | GI50 (MDA-MB-435): > 100 µM (inactive) | GI50 (NCI-H226): 20.8 µM (inactive) | GI50 (A498): 47.2 µM (inactive) | GI50 (SF-295): 26.4 µM (inactive) | GI50 (OVCAR-5): 56 µM (inactive) | GI50 (SF-539): 17.5 µM (inactive) | GI50 (MDA-N): > 100 µM (inactive) | GI50 (LOX IMVI): 20.2 µM (inactive) | GI50 (NCI-H23): > 100 µM (inactive) | GI50 (MCF7): > 100 µM (inactive) | GI50 (TK-10): > 100 µM (inactive) | GI50 (DU-145): > 100 µM (inactive) | GI50 (RPMI-8226): 95.3 µM (inactive) | GI50 (SNB-75): 15.9 µM (inactive) | GI50 (UO-31): 23 µM (inactive) | GI50 (786-0): > 100 µM (inactive) | GI50 (SK-MEL-28): 30.3 µM (inactive) | GI50 (IGROV-1): 32.9 µM (inactive) | GI50 (MOLT-4): 21.7 µM (inactive) | GI50 (MDA-MB-231): > 100 µM (inactive) | GI50 (U-251): 19.9 µM (inactive) | GI50 (UACC-257): 40 µM (inactive) | GI50 (HCT-15): 72.9 µM | GI50 (SF-268): 22.2 µM (inactive) | GI50 (SW-620): 26.7 µM (inactive) | GI50 (NCI-H460): 36.9 µM (inactive) | GI50 (SK-MEL-2): 17.5 µM (inactive) | GI50 (KM12): 18.5 µM (inactive) | GI50 (HCC 2998): > 100 µM (inactive) | GI50 (A549): > 100 µM (inactive) | GI50 (OVCAR-3): > 100 µM (inactive) | GI50 (COLO 205): 17.8 µM (inactive) | GI50 (SNB-19): 34 µM (inactive) | GI50 (SK-MEL-5): 17.4 µM (inactive) | GI50 (NCI-H522): 32.5 µM (inactive) | GI50 (UACC-62): 15.8 µM (inactive) | GI50 (NCI/ADR-RES): 21.8 µM (inactive) | GI50 (HL-60): 37.5 µM (inactive) | GI50 (HCT-116): 70.1 µM (inactive)
